{"source": "patent EP0082501A1", "about": "“Beta-lactam compound and a pharmaceutical composition containing the same” (KYOWA HAKKO KOGYO CO., LTD, priority 1981, dated 1983)", "experiment_in_all_cases": "Antibacterial effect, dilution method on Mueller-Hinton agar (MIC)", "format_in_all_cases": "cell-based", "key": {"[1]": {"tested_on": "Proteus morganii 4298", "conditions": "Morganella morganii"}, "[2]": {"tested_on": "Proteus rettgeri 4289", "conditions": "Providencia rettgeri"}, "[3]": {"tested_on": "Staphilococcus aureus 209-P"}, "[4]": {"tested_on": "Pseudomonas aerginosa 145"}, "[5]": {"tested_on": "Pseudomonas sepatia F-2251", "conditions": "F2251"}, "[6]": {"tested_on": "Serratia marcescens T-26", "conditions": "T26"}, "[7]": {"tested_on": "Pseudomonas maltphilia F-3438", "conditions": "F3438"}, "[8]": {"tested_on": "Krebsiella pneumoniae 8045"}, "[9]": {"tested_on": "Escherichia coli NIHJ C-2", "conditions": "NIHJC2"}, "[10]": {"tested_on": "Enterobacter aerogenes F-1948", "conditions": "Klebsiella aerogenes, F1948"}, "[11]": {"tested_on": "Proteus vulgaris 6897"}}}
{"smiles": "CO/N=C(\\C(=O)N[C@@H]1C(=O)N2C(C(=O)O)=C[C@H](Sc3nnnn3C)C[C@H]12)c1csc(N)n1", "note": "[Ex.15, [4R,6R,7S]-7-[2-(2-amino-4-thiazolyl)-2-syn-methoxyiminoacetamido]-4-(1-methyl-1,2,3,4-tetrazol-5-yl)-thio-1-azabicyclo[4,2,0]oct-2-en-8-oxo-2-carboxylic acid]", "values": [{"measurement": "MIC", "setting": "[1]", "result": "≤ 0.01", "unit": "µg/mL"}, {"measurement": "MIC", "setting": "[2]", "result": "≤ 0.01", "unit": "µg/mL"}, {"measurement": "MIC", "setting": "[3]", "result": 6.25, "unit": "µg/mL"}, {"measurement": "MIC", "setting": "[4]", "result": 12.5, "unit": "µg/mL"}, {"measurement": "MIC", "setting": "[5]", "result": 25, "unit": "µg/mL"}, {"measurement": "MIC", "setting": "[6]", "result": 6.25, "unit": "µg/mL"}, {"measurement": "MIC", "setting": "[7]", "result": "> 100", "unit": "µg/mL"}, {"measurement": "MIC", "setting": "[8]", "result": 0.02, "unit": "µg/mL"}, {"measurement": "MIC", "setting": "[9]", "result": 0.1, "unit": "µg/mL"}, {"measurement": "MIC", "setting": "[10]", "result": 50, "unit": "µg/mL"}, {"measurement": "MIC", "setting": "[11]", "result": "≤ 0.01", "unit": "µg/mL"}]}
{"smiles": "CO/N=C(\\C(=O)N[C@@H]1C(=O)N2C(C(=O)O)=C[C@@H](Sc3ccncc3)C[C@H]12)c1csc(N)n1", "note": "[Ex.23, sodium [4S,6R,7S]-7-[2-(2-amino-thiazol-4-yl)-2-syn-methoxyimino]-acetamido-4-(pyridin-4-yl)-thio-1-azabicyclo[4,2,0]oct-2-en-8-oxo-2-carboxylate]", "values": [{"measurement": "MIC", "setting": "[1]", "result": 0.2, "unit": "µg/mL"}, {"measurement": "MIC", "setting": "[2]", "result": 0.02, "unit": "µg/mL"}, {"measurement": "MIC", "setting": "[3]", "result": 3.13, "unit": "µg/mL"}, {"measurement": "MIC", "setting": "[4]", "result": 12.5, "unit": "µg/mL"}, {"measurement": "MIC", "setting": "[5]", "result": 12.5, "unit": "µg/mL"}, {"measurement": "MIC", "setting": "[6]", "result": 25, "unit": "µg/mL"}, {"measurement": "MIC", "setting": "[7]", "result": "> 100", "unit": "µg/mL"}, {"measurement": "MIC", "setting": "[8]", "result": 0.2, "unit": "µg/mL"}, {"measurement": "MIC", "setting": "[9]", "result": 0.39, "unit": "µg/mL"}, {"measurement": "MIC", "setting": "[10]", "result": 50, "unit": "µg/mL"}, {"measurement": "MIC", "setting": "[11]", "result": "≤ 0.01", "unit": "µg/mL"}]}
{"smiles": "CO/N=C(\\C(=O)N[C@@H]1C(=O)N2C(C(=O)O)=C[C@@H](N=[N+]=[N-])C[C@H]12)c1csc(N)n1", "note": "[Ex.26, [4S,6R,7S]-7-[2-(2-amino-4-thiazolyl)-2-syn-methoxyiminoacetamido]-4-azido-1-azabicyclo[4,2,0]oct-2-en-8-oxo-2-carboxylic acid]", "values": [{"measurement": "MIC", "setting": "[1]", "result": 0.02, "unit": "µg/mL"}, {"measurement": "MIC", "setting": "[2]", "result": "≤ 0.01", "unit": "µg/mL"}, {"measurement": "MIC", "setting": "[3]", "result": 6.25, "unit": "µg/mL"}, {"measurement": "MIC", "setting": "[4]", "result": 12.5, "unit": "µg/mL"}, {"measurement": "MIC", "setting": "[5]", "result": 25, "unit": "µg/mL"}, {"measurement": "MIC", "setting": "[6]", "result": 6.25, "unit": "µg/mL"}, {"measurement": "MIC", "setting": "[7]", "result": "> 100", "unit": "µg/mL"}, {"measurement": "MIC", "setting": "[8]", "result": 0.02, "unit": "µg/mL"}, {"measurement": "MIC", "setting": "[9]", "result": 0.05, "unit": "µg/mL"}, {"measurement": "MIC", "setting": "[10]", "result": 25, "unit": "µg/mL"}, {"measurement": "MIC", "setting": "[11]", "result": "≤ 0.01", "unit": "µg/mL"}]}
{"smiles": "CC(=O)Oc1ccc(C(=O)O/N=C(\\C(=O)N[C@@H]2C(=O)N3C(C(=O)O)=C[C@H](N=[N+]=[N-])C[C@H]23)c2csc(N)n2)cc1OC(C)=O", "note": "[Ex. 6, [4R,6R,7S]-7-[2-(2-amino-4-thiazolyl)-2-syn-(3,4-diacetoxy)-benzoyloxyimino-acetamido]-4-azido-l-azabicyclo[4,2,0]oct-2-en-8-oxo-2-carboxylic acid]", "values": [{"measurement": "MIC", "setting": "[1]", "result": 0.05, "unit": "µg/mL"}, {"measurement": "MIC", "setting": "[2]", "result": "≤ 0.01", "unit": "µg/mL"}, {"measurement": "MIC", "setting": "[3]", "result": 3.13, "unit": "µg/mL"}, {"measurement": "MIC", "setting": "[4]", "result": 0.1, "unit": "µg/mL"}, {"measurement": "MIC", "setting": "[5]", "result": 0.02, "unit": "µg/mL"}, {"measurement": "MIC", "setting": "[6]", "result": 0.05, "unit": "µg/mL"}, {"measurement": "MIC", "setting": "[7]", "result": 25, "unit": "µg/mL"}, {"measurement": "MIC", "setting": "[8]", "result": 0.02, "unit": "µg/mL"}, {"measurement": "MIC", "setting": "[9]", "result": 0.05, "unit": "µg/mL"}, {"measurement": "MIC", "setting": "[10]", "result": 3.13, "unit": "µg/mL"}, {"measurement": "MIC", "setting": "[11]", "result": "≤ 0.01", "unit": "µg/mL"}]}
{"smiles": "CO/N=C(\\C(=O)N[C@@H]1C(=O)N2C(C(=O)O)=C[C@H](Sc3nnnn3-c3ccccc3)C[C@H]12)c1csc(N)n1", "note": "[Ex. 13, [4R,6R,7S]-7-[2-(2-amino-4-thiazolyl)-2-syn-methoxyiminoacetamido]-4-(1-phenyl-1,2,3,4-tetrazol-5-yl)-thio-l-azabicyclo[4,2,0]oct-2-en-8-oxo-2-carboxylic acid]", "values": [{"measurement": "MIC", "setting": "[1]", "result": 0.78, "unit": "µg/mL"}, {"measurement": "MIC", "setting": "[2]", "result": 0.2, "unit": "µg/mL"}, {"measurement": "MIC", "setting": "[3]", "result": 3.13, "unit": "µg/mL"}, {"measurement": "MIC", "setting": "[4]", "result": 12.5, "unit": "µg/mL"}, {"measurement": "MIC", "setting": "[5]", "result": 25, "unit": "µg/mL"}, {"measurement": "MIC", "setting": "[6]", "result": 6.25, "unit": "µg/mL"}, {"measurement": "MIC", "setting": "[7]", "result": "> 100", "unit": "µg/mL"}, {"measurement": "MIC", "setting": "[8]", "result": 0.39, "unit": "µg/mL"}, {"measurement": "MIC", "setting": "[9]", "result": 0.78, "unit": "µg/mL"}, {"measurement": "MIC", "setting": "[10]", "result": 50, "unit": "µg/mL"}, {"measurement": "MIC", "setting": "[11]", "result": 0.02, "unit": "µg/mL"}]}
{"smiles": "CO/N=C(\\C(=O)N[C@@H]1C(=O)N2C(C(=O)O)=C[C@H](N=[N+]=[N-])C[C@H]12)c1csc(N)n1", "note": "[Exs. 5 and 17, [4R, 6R, 7S]-7-[2-(2-amino-4-thiazolyl)-2-syn-methoxyiminoacetamido]-4-azido-1-azabicyclo [4,2,0]oct-2-en-8-oxo-2-carboxylic acid]", "values": [{"measurement": "MIC", "setting": "[1]", "result": "≤ 0.01", "unit": "µg/mL"}, {"measurement": "MIC", "setting": "[3]", "result": 1.56, "unit": "µg/mL"}, {"measurement": "MIC", "setting": "[4]", "result": 6.25, "unit": "µg/mL"}, {"measurement": "MIC", "setting": "[5]", "result": 12.5, "unit": "µg/mL"}, {"measurement": "MIC", "setting": "[6]", "result": 6.25, "unit": "µg/mL"}, {"measurement": "MIC", "setting": "[7]", "result": "> 100", "unit": "µg/mL"}, {"measurement": "MIC", "setting": "[8]", "result": 0.02, "unit": "µg/mL"}, {"measurement": "MIC", "setting": "[9]", "result": 0.1, "unit": "µg/mL"}, {"measurement": "MIC", "setting": "[10]", "result": 25, "unit": "µg/mL"}]}
